Reference: patent US11053204B2, “Pyrimidinyloxy benzene derivatives as herbicides” (FMC Corporation, priority 2015, dated 2021)

Tests used:
Type in all cases: in vivo
[1] = test system: barnyardgrass (Echinochloa crus-galli); assay: Test C preemergence, plant response rating; conditions: Preemergence
[2] = test system: galium (catchweed bedstraw, Galium aparine); assay: Test C preemergence, plant response rating
kochia (Kochia scoparia) = assay: Test C preemergence, plant response rating
[3] = test system: field violet (Viola arvensis); assay: Test C postemergence, plant response rating; conditions: for Field Violet plant response rating: scale 0 to 100 (0 no effect, 100 complete control)
In short: (§1)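 Preemergence: seeds sown in loam–sand blend or silt loam and sprayed with test chemicals in a non-phytotoxic surfactant-containing solvent. Postemergence: potted plants at 2–18 cm (1–4-leaf stage) sprayed with the same formulation. After 13–15 d in greenhouse, visual rating versus controls on 0 (no effect) to 100 (complete control) scale.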

[4] = test system: buckwheat, wild (wild buckwheat, Polygonum convolvulus); assay: Test C postemergence, plant response rating; conditions: for Buckwheat, Wild plant response rating: scale 0 to 100 (0 no effect, 100 complete control)
In short: as §1

[5] = test system: wild poinsettia (Euphorbia heterophylla); assay: Test C postemergence, plant response rating; conditions: for Poinsettia, Wild plant response rating: scale 0 to 100 (0 no effect, 100 complete control)
In short: as §1

[6] = test system: field poppy (Papaver rhoeas); assay: Test C postemergence, plant response rating; conditions: for Field Poppy plant response rating: scale 0 to 100 (0 no effect, 100 complete control)
In short: as §1

[7] = test system: nightshade (eastern black nightshade, Solanum ptycanthum); assay: Test C postemergence, plant response rating; conditions: for Nightshade plant response rating: scale 0 to 100 (0 no effect, 100 complete control)
In short: as §1

[8] = test system: pigweed, palmer (palmer pigweed, Amaranthus palmeri); assay: Test C postemergence, plant response rating; conditions: for Pigweed, Palmer plant response rating: scale 0 to 100 (0 no effect, 100 complete control)
In short: as §1

[9] = test system: Canada thistle (Cirsium arvense); assay: Test C postemergence, plant response rating; conditions: for Canada Thistle plant response rating: scale 0 to 100 (0 no effect, 100 complete control)
In short: as §1

[10] = test system: geranium, cutleaf (cutleaf geranium, Geranium dissectum); assay: Test C postemergence, plant response rating; conditions: for Geranium, Cutleaf plant response rating: scale 0 to 100 (0 no effect, 100 complete control)
In short: as §1

[11] = test system: windgrass (Apera spica-venti); assay: Test C postemergence, plant response rating
In short: as §1

[12] = test system: speedwell (bird's-eye speedwell, Veronica persica); assay: Test C postemergence, plant response rating; conditions: for Speedwell plant response rating: scale 0 to 100 (0 no effect, 100 complete control)
In short: as §1

[13] = test system: wild mustard (Sinapis arvensis); assay: Test C postemergence, plant response rating; conditions: for Mustard, Wild plant response rating: scale 0 to 100 (0 no effect, 100 complete control)
In short: as §1

[14] = test system: surinam grass (Brachiaria decumbens); assay: Test C postemergence, plant response rating
In short: as §1

[15] = test system: johnsongrass (Sorghum halepense); assay: Test C postemergence, plant response rating; conditions: for Johnsongrass plant response rating: scale 0 to 100 (0 no effect, 100 complete control)
In short: as §1

[16] = test system: johnsongrass (Sorghum halepense); assay: Test C preemergence, plant response rating
[17] = test system: nightshade (eastern black nightshade, Solanum ptycanthum); assay: Test C preemergence, plant response rating
[18] = 125 g ai/ha, scale 0 to 100 (0 no effect, 100 complete control)

O=C(CCCCC(F)(F)F)c1c(Br)cccc1Oc1ncc(Cl)cn1 [Compound 82]
75: Poinsettia, Wild plant response rating ([5]; 125 g ai/ha) | Plant response rating, Pigweed, Palmer ([8]; 16 g ai/ha, scale of 0 to 100) | Plant response rating, Speedwell ([12]; 16 g ai/ha, scale of 0 to 100)
95: Plant response rating, Kochia (kochia (Kochia scoparia); 125 g ai/ha, scale of 0 to 100) | Nightshade plant response rating ([7]; 62 g ai/ha) | Speedwell plant response rating ([12]; 62 g ai/ha) | Speedwell plant response rating ([12]; 125 g ai/ha) | Plant response rating, Mustard, Wild ([13]; 16 g ai/ha, scale of 0 to 100) | Plant response rating, Mustard, Wild ([13]; 31 g ai/ha, scale 0 to 100)
60: Plant response rating, Field Violet ([3]; 16 g ai/ha, scale of 0 to 100) | Geranium, Cutleaf plant response rating ([10]; 125 g ai/ha)
65: Plant response rating, Poinsettia, Wild ([5]; 31 g ai/ha, scale 0 to 100)
20: Plant response rating, Barnyardgrass ([1]; 62 g ai/ha, scale 0 to 100) | Plant response rating, Surinam Grass ([14]; 16 g ai/ha, scale of 0 to 100) | Plant response rating, Surinam Grass ([14]; 31 g ai/ha, scale 0 to 100) | Plant response rating, Johnsongrass ([15]; 31 g ai/ha, scale 0 to 100) | Plant response rating, Nightshade ([17]; 31 g ai/ha, scale 0 to 100)
35: Plant response rating, Windgrass ([11]; 31 g ai/ha, scale 0 to 100) | Windgrass plant response rating [11, 18]
98: Pigweed, Palmer plant response rating ([8]; 62 g ai/ha) | Pigweed, Palmer plant response rating ([8]; 125 g ai/ha) | Canada Thistle plant response rating ([9]; 125 g ai/ha)
40: Plant response rating, Poinsettia, Wild ([5]; 16 g ai/ha, scale of 0 to 100) | Geranium, Cutleaf plant response rating ([10]; 62 g ai/ha) | Plant response rating, Johnsongrass ([16]; 62 g ai/ha, scale 0 to 100) | Plant response rating, Nightshade ([17]; 62 g ai/ha, scale 0 to 100)
0: Plant response rating, Galium ([2]; 31 g ai/ha, scale 0 to 100) | Plant response rating, Galium ([2]; 62 g ai/ha, scale 0 to 100)
70: Plant response rating, Field Violet ([3]; 31 g ai/ha, scale 0 to 100) | Plant response rating, Buckwheat, Wild ([4]; 31 g ai/ha, scale 0 to 100)
50: Plant response rating, Kochia (kochia (Kochia scoparia); 31 g ai/ha, scale 0 to 100) | Plant response rating, Field Poppy ([6]; 16 g ai/ha, scale of 0 to 100)
30: Plant response rating, Geranium, Cutleaf ([10]; 16 g ai/ha, scale of 0 to 100) | Plant response rating, Geranium, Cutleaf ([10]; 31 g ai/ha, scale 0 to 100) | Johnsongrass plant response rating ([15]; 125 g ai/ha)
100: Buckwheat, Wild plant response rating ([4]; 62 g ai/ha) | Buckwheat, Wild plant response rating ([4]; 125 g ai/ha) | Field Poppy plant response rating ([6]; 62 g ai/ha) | Field Poppy plant response rating ([6]; 125 g ai/ha) | Nightshade plant response rating ([7]; 125 g ai/ha) | Mustard, Wild plant response rating ([13]; 62 g ai/ha) | Mustard, Wild plant response rating ([13]; 125 g ai/ha)
25: Surinam Grass plant response rating [14, 18]
5: Plant response rating, Barnyardgrass ([1]; 16 g ai/ha, scale 0 to 100) | Plant response rating, Barnyardgrass ([1]; 31 g ai/ha, scale 0 to 100) | Plant response rating, Johnsongrass ([15]; 16 g ai/ha, scale of 0 to 100) | Plant response rating, Johnsongrass ([16]; 31 g ai/ha, scale 0 to 100)
10: Plant response rating, Windgrass ([11]; 16 g ai/ha, scale of 0 to 100) | Johnsongrass plant response rating ([15]; 62 g ai/ha)
80: Plant response rating, Galium ([2]; 125 g ai/ha, scale of 0 to 100) | Plant response rating, Buckwheat, Wild ([4]; 16 g ai/ha, scale of 0 to 100) | Plant response rating, Nightshade ([7]; 31 g ai/ha, scale 0 to 100) | Plant response rating, Pigweed, Palmer ([8]; 31 g ai/ha, scale 0 to 100)
90: Plant response rating, Barnyardgrass ([1]; 125 g ai/ha, scale of 0 to 100) | Plant response rating, Kochia (kochia (Kochia scoparia); 62 g ai/ha, scale 0 to 100) | Field Violet plant response rating ([3]; 62 g ai/ha) | Field Violet plant response rating ([3]; 125 g ai/ha)
85: Poinsettia, Wild plant response rating ([5]; 62 g ai/ha) | Plant response rating, Field Poppy ([6]; 31 g ai/ha, scale 0 to 100) | Plant response rating, Nightshade ([7]; 16 g ai/ha, scale of 0 to 100) | Plant response rating, Canada Thistle ([9]; 16 g ai/ha, scale of 0 to 100) | Plant response rating, Canada Thistle ([9]; 31 g ai/ha, scale 0 to 100) | Canada Thistle plant response rating ([9]; 62 g ai/ha) | Plant response rating, Speedwell ([12]; 31 g ai/ha, scale 0 to 100) | Plant response rating, Johnsongrass ([16]; 125 g ai/ha, scale of 0 to 100) | Plant response rating, Nightshade ([17]; 125 g ai/ha, scale of 0 to 100)
